Source: US10975037B2 (priority 2018, dated 2021)
Structures can show the parent of a compound that is named as a salt. Where two headings read alike, the source gives them in different places.

Assays:
[1] = target: human RORγt ligand binding domain (RORγt LBD) (Homo sapiens (Human), UniProt P51449); assay: RORγt ThermoFluor® assay (thermal shift binding)
Summary of the method: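 Thermal shift with 0.065 mg/mL RORγt LBD and 60 μM 1,8-ANS in 100 mM Hepes pH 7.0, 10 mM NaCl, 2.5 mM GSH, 0.002% Tween-20.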

full-length human RORγt = full-length human RORγt (Homo sapiens (Human), UniProt P51449); assay: RORγt (full-length human) reporter assay, conditions A or B, HEK293T cells; assay type: cell-based; details: for IC50: RORγt (FL) Reporter Assay A or B, IC50, HEK293T cells; for inhibition at 3 µM: 3 μM compound concentration (footnote *)
Summary of the method: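 After 16–20 h, dual firefly/Renilla luciferase luminescence was read. Firefly signal was normalized to DMSO and saturating reference compound, then to Renilla, and fitted for IC50; % inhibition is versus DMSO.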

[2] = read-out: ThermoFluor® Assay, Kd
[3] = HEK-293T, read-out: RORγt (FL) Reporter Assay A or B, % inhibition

full-length human RORγt, sequence (P51449 other isoform, or with tags, fused parts or gaps): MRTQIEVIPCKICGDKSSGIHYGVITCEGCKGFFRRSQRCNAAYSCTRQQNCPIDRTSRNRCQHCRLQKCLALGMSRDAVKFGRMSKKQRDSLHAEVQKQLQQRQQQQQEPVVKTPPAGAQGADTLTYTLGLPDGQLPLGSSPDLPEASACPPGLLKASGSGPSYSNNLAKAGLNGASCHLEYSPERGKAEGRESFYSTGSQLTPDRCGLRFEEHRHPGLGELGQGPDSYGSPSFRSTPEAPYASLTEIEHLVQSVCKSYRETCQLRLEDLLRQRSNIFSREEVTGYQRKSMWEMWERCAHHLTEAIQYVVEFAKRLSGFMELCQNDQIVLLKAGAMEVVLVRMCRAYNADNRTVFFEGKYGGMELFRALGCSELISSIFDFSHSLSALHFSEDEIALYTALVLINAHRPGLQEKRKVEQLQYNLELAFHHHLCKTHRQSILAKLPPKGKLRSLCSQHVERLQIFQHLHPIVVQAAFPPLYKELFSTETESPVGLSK
human RORγt ligand binding domain (RORγt LBD), sequence (P51449 other isoform, or with tags, fused parts or gaps): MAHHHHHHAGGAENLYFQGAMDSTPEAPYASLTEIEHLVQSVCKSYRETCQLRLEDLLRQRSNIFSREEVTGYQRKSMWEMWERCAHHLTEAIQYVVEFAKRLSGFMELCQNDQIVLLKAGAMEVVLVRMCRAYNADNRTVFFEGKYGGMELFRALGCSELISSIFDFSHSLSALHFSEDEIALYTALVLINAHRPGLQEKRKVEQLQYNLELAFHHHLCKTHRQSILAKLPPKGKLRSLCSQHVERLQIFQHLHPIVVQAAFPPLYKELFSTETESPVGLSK

Row | SMILES | Kd [1, 2] [nM] | IC50 (full-length human RORγt) [nM] | Kd ([1]; ThermoFluor® Assay, Kd) [nM] | also measured
1 | CCn1nc(C(=O)NC[C@@H]2CC[C@@H](S(C)(=O)=O)CN2)c(Cl)c1-c1ccc(CC(C)(C)C(F)(F)F)cc1OC(F)F (stereo in doubt) [Example 10, 4-Chloro-5-(2-(difluoromethoxy)-4-(3,3,3-trifluoro-2,2-dimethylpropyl)phenyl)-1-ethyl-N-(((2S*,5R*)-5-(methylsulfonyl)piperidin-2-yl)methyl)-1H-pyrazole-3-carboxamide hydrobromide] |  | 25 | 2.6 | inhibition at 3 µM (full-length human RORγt; [3]): 103%
2 | CCn1nc(C(=O)NC[C@]2(O)CC[C@@H](S(C)(=O)=O)CC2)c(Cl)c1-c1ccc(CCC(F)(F)F)cc1Cl [Example 173, 4-Chloro-5-(2-chloro-4-(3,3,3-trifluoropropyl)phenyl)-1-ethyl-N-(((1s,4s)-1-hydroxy-4-(methylsulfonyl)cyclohexyl)methyl)-1H-pyrazole-3-carboxamide] | 12 | 28 |  | inhibition at 0.67 µM (full-length human RORγt; [3]): 36%
3 | CCn1nc(C(=O)NC[C@H]2CC[C@H](S(N)(=O)=O)CC2)c(Cl)c1-c1ccc(CC(C)(C)C(F)(F)F)cc1OC(F)F [Example 51, 4-Chloro-5-(2-(difluoromethoxy)-4-(3,3,3-trifluoro-2,2-dimethylpropyl)phenyl)-1-ethyl-N-(((1r,4r)-4-sulfamoylcyclohexyl)methyl)-1H-pyrazole-3-carboxamide] |  | 4.6 | 0.25 | inhibition at 1 µM (full-length human RORγt; HEK-293T, 1 μM compound concentration (footnote ***), read-out: RORγt (FL) Reporter Assay A or B, % inhibition): 113%
4 | CCn1nc(C(=O)NC[C@H]2CC[C@H](S(N)(=O)=O)CC2)c(Cl)c1-c1ccc(C[C@H](C)C(F)(F)F)cc1OC(F)F (single isomer, unassigned) [Example 54, 4-Chloro-5-(2-(difluoromethoxy)-4-((S*)-3,3,3-trifluoro-2-methylpropyl)phenyl)-1-ethyl-N-(((1r,4S)-4-sulfamoylcyclohexyl)methyl)-1H-pyrazole-3-carboxamide] |  | 9.8 | 0.69 | inhibition at […] (full-length human RORγt; HEK-293T, 0.33 μM compound concentration (footnote *****), read-out: RORγt (FL) Reporter Assay A or B, % inhibition): 102%

Continued, in another order:

Row | Kd [1, 2] [nM] | IC50 (full-length human RORγt) [nM] | Kd ([1]; ThermoFluor® Assay, Kd) [nM] | SMILES | also measured
5 | 0.28 | 2.1 |  | CCn1nc(C(=O)NC[C@H]2CC[C@H](S(C)(=O)=O)CC2)c(Cl)c1-c1ccc(CCCC(F)(F)F)cc1OC(F)F [Example 76, 4-Chloro-5-(2-(difluoromethoxy)-4-(4,4,4-trifluorobutyl)phenyl)-1-ethyl-N-(((1r,4r)-4-(methylsulfonyl)cyclohexyl)methyl)-1H-pyrazole-3-carboxamide] | inhibition at […] (full-length human RORγt; HEK-293T, 0.22 μM compound concentration (footnote *******), read-out: RORγt (FL) Reporter Assay A or B, % inhibition): 103%
6 | 11 | 31 |  | CC(C)(O)Cn1nc(C(=O)NC[C@]2(O)CC[C@@H](S(C)(=O)=O)CC2)c(Cl)c1-c1ccc(CC(C)(C)C(F)(F)F)cc1OC(F)F [Example 144, 4-Chloro-5-(2-(difluoromethoxy)-4-(3,3,3-trifluoro-2,2-dimethylpropyl)phenyl)-1-(2-hydroxy-2-methylpropyl)-N-(((1s,4s)-1-hydroxy-4-(methylsulfonyl)cyclohexyl)methyl)-1H-pyrazole-3-carboxamide] | inhibition at 6 µM (full-length human RORγt; HEK-293T, read-out: RORγt (FL) Reporter Assay A or B, % inhibition @ 6 μM, 6 μM compound concentration): 112%
7 |  | 85 | 5.8 | CCn1nc(C(=O)NC[C@@]2(O)CC[C@H](S(C)(=O)=O)C[C@@H]2O)c(C)c1-c1ccc(C[C@@H](C)C(F)(F)F)cc1OC(F)F (stereo in doubt) [Example 141, 5-(2-(Difluoromethoxy)-4-((R*)-3,3,3-trifluoro-2-methylpropyl)phenyl)-N-(((1S*,2S*,4S*)-1,2-dihydroxy-4-(methylsulfonyl)cyclohexyl)methyl)-1-ethyl-4-methyl-1H-pyrazole-3-carboxamide] | inhibition at 3 µM (full-length human RORγt; [3]): 84%
8 | 4.1 | 14 |  | CCn1nc(C(=O)NC[C@H]2CC[C@H](S(C)(=O)=O)CC2)c(C)c1-c1ccc(CCCC(F)(F)F)cc1OC [Example 82, 1-Ethyl-5-(2-methoxy-4-(4,4,4-trifluorobutyl)phenyl)-4-methyl-N-(((1r,4r)-4-(methylsulfonyl)cyclohexyl)methyl)-1H-pyrazole-3-carboxamide] | inhibition at 0.67 µM (full-length human RORγt; HEK-293T, 0.67 μM compound concentration (footnote ****), read-out: RORγt (FL) Reporter Assay A or B, % inhibition): 87%
